Here are results for 15 molecules from patent publication US7638554B2, “Flavanoids as chemotherapeutic, chemopreventive, and antiangiogenic agents” (SRI International, priority 2002, dated 2009).

What is called IC50 is the concentration that inhibits the measured activity by half.

Assay [1] relates to MCF-7 (ER+) breast cancer cell line. As to the kind of experiment: Growth inhibition assay, MTT, MCF-7 breast cancer cells. The class given is cell-based, human. As to conditions: MTT assay, eight days, average of at least two experiments, read-out: GROWTH INHIBITION (IC50) MCF-7 (ER+). On the procedure:
(§1) Compounds of the invention were tested for their ability to inhibit growth in two breast cancer cell lines, MCF-7 (ER+) and MDA-MB-231 (ER−).
(§2) The growth inhibition assays were conducted using routine methods. Briefly, the cells were seeded in 24-well plates at a density of 2000 cells per well in 200 μL of […] growth medium. To each well was added 10 μL of DMSO containing the dissolved test compound; final DMSO concentration in each well was not more than 0.5%. Each test compound was assayed at concentrations of 0.4, 2, 10, and 50 μM. The plates were incubated for eight days, with the media and test solutions replaced every third day. On Day 8, the viable cells were measured by the MTT assay, as described in Mosmann et al. (1983), “Rapid Colorimetric Assay for Cellular Growth and Survival: Application to Proliferation and Cytotoxicity,” J. Immunol. Method. 65:55-63. The optical density at 575 nm of each test well was measured and compared to that for control wells, and the data used to calculate the percentage of growth inhibition at different concentrations. The IC50 value (the concentration of growth inhibitor that results in 50% growth inhibition of the cells in culture relative to control cells not exposed to any growth inhibitor) was determined by plotting dose-response curves.
(§3) The calculated IC50 values are set forth in Table 1, with the results representing the average of at least two experiments conducted for each compound at each of the four concentrations.
Background: Formazan colour is commonly taken as a measure of viable cells.

Assay [2] deals with MDA-MB-231 (ER−) breast cancer cell line. The experiment in a line: Growth inhibition assay, MTT, MDA-MB-231 breast cancer cells. Particulars: eight days, average of at least two experiments. The assay is classed as cell-based, human. As to the method: as §1, §2, §3
Assay [3] relates to chick chorioallantoic membrane (CAM) blood vessels. The experiment in a line: Chick chorioallantoic membrane (CAM) assay for antiangiogenic activity. The class given is in vivo. Particulars: 11.1 μg/CAM, once daily for 12-14 days. On the procedure: The CAM assay, which is widely applied to evaluate in vivo antiangiogenic activity, was utilized with SR 13179.
The methods used were those of Folkman (Auerbach et al. (1974) Dev. Biol. 41:391-394), with some modifications. The test compound was dissolved in saline and methylcellulose, and the embryos dosed once daily for 12-14 days. Blood vessel density of each embryo was measured as the quantitative endpoint. The known antiangiogenic compound medroxyprogesterone acetate (MPA) was used as a positive control.

The test system of assay [4] is prostate cancer cell line LNCaP. As to the kind of experiment: Growth inhibition, sulforhodamine-based protein determination, LNCaP. The assay is classed as cell-based. Particulars: Homo sapiens, Table 5, read-out: Growth Inhibition (IC50), LNCaP cells. On the procedure: The novel compound SR 13179 was assayed for its ability to inhibit growth in several cancer cell lines. The cell lines studied included breast cancer cell line MCF-7 (ER+); prostate cancer cell lines LNCaP, PC3, and DU145; lung cancer cell line A427; ovarian cancer cell lines IGROV1, OVCAR-3, OVCAR-4, OVCAR-5, OVCAR-8, and SK-OV-3; and colon cancer cell lines COLO 205, HCC-2998, HCT-116, HCT-15, HT29, KM12, AND SW-620.
The growth assays for the breast cancer cell lines were conducted according to the method of Example 16. For the other cell lines, each assay was conducted with continuous exposure to the test compound at four log concentrations for six days, using a sulforhodamine-based protein determination to measure growth inhibition.
The procedure of Example 20 was used to evaluate the growth inhibitory effect of various compounds of the invention on LNCaP cells.

[5] abbreviates: Homo sapiens, MDA-MB-231, 192 h.

Like-named read-outs stand apart in the source and are kept apart here.

Regarding “3-(3,4,5-Trimethoxyphenyl)-2,3-dihydro-benzo[F]chromen-1-one [SR 13182]”, the IC50 in assay [1] and in assay [2] was over 50 µM in each case.

As for `CC(=O)O[C@]1(C(C)=O)CC[C@H]2[C@@H]3C[C@H](C)C4=CC(=O)CC[C@]4(C)[C@H]3CC[C@@]21C` [MPA, medroxyprogesterone acetate, reference compound], in assay [3], the “Blood vessel density score” value was found to be 4.5 ± 2.3 and the “Percent inhibition relative to control” value came to 58%.

Consider `COc1cc(/C=C/C(=O)c2ccc3ccccc3c2O)cc(OC)c1OC` [SR 13176, 1-(1-Hydroxy-naphthalen-2-yl)-3-(3,4,5-trimethoxyphenyl)-propenone], for which the IC50 was over 50 µM in assay [1] (Homo sapiens, MCF7, 192 h) and 39 µM in assay [2] (setting [5]).

Consider `COc1cc(C2CC(=O)c3ccc4ccccc4c3O2)cc(OC)c1OC` (centres unmarked) [SR 13177, 2-(3,4,5-TRIMETHOXYPHENYL)-2,3-DIHYDRO-BENZO[H]CHROMEN-4-ONE], for which the IC50 was 4.65 µM in assay [1] (Homo sapiens, MCF7, 192 h) and 2.52 µM in assay [4].

For the molecule `O=C(C=Cc1cc(OCc2ccccc2)c(OCc2ccccc2)c(OCc2ccccc2)c1)c1c(O)cc(OCc2ccccc2)cc1OCc1ccccc1` [SR 13178, 1-(2,4-Bis-benzyloxy-6-hydroxyphenyl)-3-(3,4,5-tris-benzyloxy-phenyl)-propenone], the results for the IC50 in assay [1] and in assay [2] were 53 µM and over 100 µM, respectively.

With `O=C1CC(c2cc(OCc3ccccc3)c(OCc3ccccc3)c(OCc3ccccc3)c2)Oc2cc(OCc3ccccc3)cc(OCc3ccccc3)c21` (centres unmarked) [SR 13180, 5,7-BIS-BENZYLOXY-2-(3,4,5-TRIS-BENZYLOXY-PHENYL)-CHROMAN-4-ONE], the IC50 was over 50 µM in assay [1] (Homo sapiens, MCF7, 192 h) and over 50 µM in assay [2] (setting [5]).

`COc1cc(C2CC(=O)c3c(ccc4ccccc34)O2)cc(OC)c1OC` (centres unmarked) [SR 13181, 3′,4′,5′-TRIMETHOXY-B-NAPHTHAFLAVAN-4-ONE]: the IC50 in assay [1] and in assay [2] was over 100 µM each time.

Regarding `OC1CC(c2cc(OCc3ccccc3)c(OCc3ccccc3)c(OCc3ccccc3)c2)Oc2cc(OCc3ccccc3)cc(OCc3ccccc3)c21` (centres unmarked) [SR 13183, 5,7-BIS-BENZYLOXY-2-(3,4,5-TRIS-BENZYLOXY-PHENYL)-CHROMAN-4-OL], the IC50 in assay [1] (Homo sapiens, MCF7, 192 h) is over 100 µM; in assay [2] (setting [5]), 13.6 µM.

Consider `O=C(/C=C/c1cc(OCc2ccccc2)c(OCc2ccccc2)c(OCc2ccccc2)c1)c1ccc2ccccc2c1O` [SR 13185, 1-(1-HYDROXY-NAPHTHALEN-2-YL)-3-(3,4,5-TRIS-BENZYLOXY-PHENYL)-PROPENONE], for which the IC50 in assay [1] (Homo sapiens, MCF7, 192 h) worked out at 5.08 µM; in assay [2] (setting [5]) it was 0.562 µM.

Turning to `O=C1CC(c2cc(OCc3ccccc3)c(OCc3ccccc3)c(OCc3ccccc3)c2)Oc2c1ccc1ccccc21` (centres unmarked) [SR 13186, 2-(3,4,5-TRIS-BENZYLOXY-PHENYL)-2,3-DIHYDRO-BENZO[H]CHROMEN-4-ONE], the IC50 came to 7.32 µM in assay [1] (Homo sapiens, MCF7, 192 h) and 9.84 µM in assay [2] (setting [5]).

Consider `COc1cc(C2CC(O)c3c(ccc4ccccc34)O2)cc(OC)c1OC` (centres unmarked) [SR 13187, 3-(3,4,5-TRIMETHOXYPHENYL)-2,3-DIHYDRO-1H-BENZO[F]CHROMEN-1-OL], for which the IC50 was 6.29 µM in assay [1] (Homo sapiens, MCF7, 192 h) and 17.7 µM in assay [4].

Consider `COc1ccc(C2CC(=O)c3c(OC)cc(OC)cc3O2)cc1` (centres unmarked) [SR 13188, 5,7-DIMETHOXY-2-(4-METHOXY-PHENYL)-CHROMAN-4-ONE], for which the IC50 in assay [1] (Homo sapiens, MCF7, 192 h) was over 50 µM; in assay [4], 3.34 µM; in assay [2] (setting [5]), over 50 µM.

As for `COc1ccc(C2CC(O)c3c(OC)cc(OC)cc3O2)cc1` (centres unmarked) [SR 13189, 5,7-DIMETHOXY-2-(4-METHOXY-PHENYL)-CHROMAN-4-OL], the IC50 was over 50 µM in assay [1] (Homo sapiens, MCF7, 192 h) and over 50 µM in assay [2] (setting [5]).

As to `OC1CC(c2cc(OCc3ccccc3)c(OCc3ccccc3)c(OCc3ccccc3)c2)Oc2c1ccc1ccccc21` (centres unmarked) [SR 13191, 2-(3,4,5-TRIS-BENZYLOXY-PHENYL)-3,4-DIHYDRO-2H-BENZO[H]CHROMEN-4-OL], the IC50 was 19.9 µM in assay [1] (Homo sapiens, MCF7, 192 h); 6.58 µM in assay [4]; over 50 µM in assay [2] (setting [5]).

Regarding `COc1cc([C@@H]2CC(O)c3cc4c(cc3O2)CCCC4)cc(OC)c1OC` (some centres unmarked) [SR 13817, 5-(4-hydroxy-3,4,6,7,8,9-hexahydro-2H-benzo[g]chromen-2-yl)benzene-1,2,3-trimethoxy], the IC50 in assay [1] turned out to be 0.56 µM; in assay [2], 1.51 µM.
